Laboratory results taken from patent publication US8076487B2, “Pyridone derivative and herbicide” (Kumiai Chemical Industry Co., Ltd., priority 2006, dated 2011).

What was measured:
Format in all cases: in vivo
[1] = system: Japanese bulrush (Scirpus juncoides Roxb.); experiment: Test Example 1: herbicidal effect by soil application to paddy field; conditions: paddy field soil application; active ingredient 1,000 g per 1 hectare; wettable powder added dropwise to water surface the day after sowing; examined on the 21st day after application
Summary of the method: (§1)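 Plants were sown in flooded (3 cm) paddy soil and evaluated for herbicidal effect 21 days after soil application in a greenhouse.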

[2] = system: early watergrass (Echinochloa oryzicola Vasing); experiment: as above; conditions: paddy field soil application; active ingredient 1,000 g per 1 hectare; wettable powder added dropwise to water surface the day after sowing; examined on the 21st day after application
Summary of the method: as §1

[3] = system: heartshape false pickerelweed (Monochoria vaginalis (Burm.f.) C.Presl); experiment: as above; conditions: paddy field soil application; active ingredient 1,000 g per 1 hectare; wettable powder added dropwise to water surface the day after sowing; examined on the 21st day after application
Summary of the method: as §1

[4] = system: slender amaranth (Amaranthus viridis L.); experiment: Test Example 3: herbicidal effect by application to upland field (foliage treatment); conditions: 14th day after application; for herbicidal effect, Slender Amaranth: foliage treatment, 1,000 g active ingredient per 1 hectare, greenhouse; for herbicidal effect (index), Slender Amaranth: foliage treatment, plants grown two weeks, 1,000 g active ingredient per hectare
Experimental: (§2) [table] Test Example 3 Test on Herbicidal Effect by Application to Upland Field In a 80 cm2 plastic pot, field soil was filled. Seeds of barnyardgrass (Echinochloa crus-galli (L.) P. Beauv. var. crus-galli), green foxtail (Setaria viridis (L.) P. Beauv.), velvetleaf (Abutilon theophrasti medicus), and slender amaranth (Amaranthus viridis L.) were sown and allowed to grow for two weeks in a greenhouse. Thereafter, the wettable powder prepared according to Formulation Example 1 was diluted in water and a 1,000 liter equivalent amount per 1 hectare so that the active ingredient becomes 1,000 g per 1 hectare was sprayed using a small sprayer from a top of the plants through its entire body for foliage treatment. Then, on the 14th day after the application to the plants grew in a greenhouse, the herbicidal effect was examined in accordance with a standard shown in Table 34.

[5] = system: velvetleaf (Abutilon theophrasti medicus); experiment: as above; conditions: 14th day after application; for herbicidal effect, Velvetleaf: foliage treatment, 1,000 g active ingredient per 1 hectare, greenhouse; for herbicidal effect (index), Velvetleaf: foliage treatment, plants grown two weeks, 1,000 g active ingredient per hectare
Experimental: as §2

[6] = system: green foxtail (Setaria viridis (L.) P. Beauv.); experiment: as above; conditions: 14th day after application; for herbicidal effect, Green Foxtail: foliage treatment, 1,000 g active ingredient per 1 hectare, greenhouse; for herbicidal effect (index), Green Foxtail: foliage treatment, plants grown two weeks, 1,000 g active ingredient per hectare
Experimental: as §2

[7] = system: barnyardgrass (Echinochloa crus-galli (L.) P. Beauv. var. crus-galli); experiment: as above; conditions: 14th day after application; for herbicidal effect, Barnyardgrass: foliage treatment, 1,000 g active ingredient per 1 hectare, greenhouse; for herbicidal effect (index), Barnyardgrass: foliage treatment, plants grown two weeks, 1,000 g active ingredient per hectare
Experimental: as §2

SMILES | herbicidal effect, Scirpus juncoides Roxb. [1] | herbicidal effect, Echinochloa oryzicola Vasing [2] | herbicidal effect, Monochoria vaginalis (Burm. f.) C. Presl [3] | herbicidal effect, Slender Amaranth [4] | herbicidal effect, Velvetleaf [5] | herbicidal effect, Green Foxtail [6] | herbicidal effect, Barnyardgrass [7] | herbicidal effect (index), Slender Amaranth [4] | herbicidal effect (index), Velvetleaf [5] | herbicidal effect (index), Green Foxtail [6] | herbicidal effect (index), Barnyardgrass [7]
CNn1c(C(F)(F)F)ccc(C(=O)C2=C(O)CCCC2=O)c1=O [I-157] | 5 (90% or more of herbicidal effect and crop phytotoxicity) | 5 (90% or more of herbicidal effect and crop phytotoxicity) | 5 (90% or more of herbicidal effect and crop phytotoxicity) | 5 (90% or more of herbicidal effect and crop phytotoxicity) | 5 (90% or more of herbicidal effect and crop phytotoxicity) | 5 (90% or more of herbicidal effect and crop phytotoxicity) | 5 (90% or more of herbicidal effect and crop phytotoxicity) |  |  |  | 
CC(=O)Oc1c(C(=O)c2ccc(C(F)(F)F)n(C)c2=O)cnn1C(C)C [IV-220] | 5 (90% or more of herbicidal effect and crop phytotoxicity) | 5 (90% or more of herbicidal effect and crop phytotoxicity) | 5 (90% or more of herbicidal effect and crop phytotoxicity) | 5 (90% or more of herbicidal effect and crop phytotoxicity) | 5 (90% or more of herbicidal effect and crop phytotoxicity) | 3 (50 to less than 70% of herbicidal effect and crop phytotoxicity) | 4 (70 to less than 90% of herbicidal effect and crop phytotoxicity) |  |  |  | 
CC(Cn1c(C(F)(F)F)ccc(C(=O)C2=C(O)CCCC2=O)c1=O)OCc1ccccc1 (stereo not drawn) [I-43] | 5 (90% or more of herbicidal effect and crop phytotoxicity) | 5 (90% or more of herbicidal effect and crop phytotoxicity) | 4 (70 to less than 90% of herbicidal effect and crop phytotoxicity) |  |  |  |  | 5 (90% or more of herbicidal effect and crop phytotoxicity) | 5 (90% or more of herbicidal effect and crop phytotoxicity) | 4 (70 to less than 90% of herbicidal effect and crop phytotoxicity) | 5 (90% or more of herbicidal effect and crop phytotoxicity)
CC(CCn1c(C(F)(F)F)ccc(C(=O)C2=C(O)CCCC2=O)c1=O)=C(F)F [I-27] | 5 (90% or more of herbicidal effect and crop phytotoxicity) | 5 (90% or more of herbicidal effect and crop phytotoxicity) | 5 (90% or more of herbicidal effect and crop phytotoxicity) |  |  |  |  | 5 (90% or more of herbicidal effect and crop phytotoxicity) | 5 (90% or more of herbicidal effect and crop phytotoxicity) | 3 (50 to less than 70% of herbicidal effect and crop phytotoxicity) | 4 (70 to less than 90% of herbicidal effect and crop phytotoxicity)
CCN(CC)n1c(C(F)(F)F)ccc(C(=O)C2=C(O)CCCC2=O)c1=O [I-172] | 5 (90% or more of herbicidal effect and crop phytotoxicity) | 5 (90% or more of herbicidal effect and crop phytotoxicity) | 5 (90% or more of herbicidal effect and crop phytotoxicity) | 5 (90% or more of herbicidal effect and crop phytotoxicity) | 5 (90% or more of herbicidal effect and crop phytotoxicity) | 5 (90% or more of herbicidal effect and crop phytotoxicity) | 5 (90% or more of herbicidal effect and crop phytotoxicity) |  |  |  | 
C=CCn1c(C(F)(F)F)ccc(C(=O)c2cnn(CC)c2OS(=O)(=O)CCC)c1=O [IV-12] | 5 (90% or more of herbicidal effect and crop phytotoxicity) | 5 (90% or more of herbicidal effect and crop phytotoxicity) | 5 (90% or more of herbicidal effect and crop phytotoxicity) | 5 (90% or more of herbicidal effect and crop phytotoxicity) | 5 (90% or more of herbicidal effect and crop phytotoxicity) | 4 (70 to less than 90% of herbicidal effect and crop phytotoxicity) | 5 (90% or more of herbicidal effect and crop phytotoxicity) |  |  |  | 
COc1ccc(-n2c(C(F)(F)F)ccc(C(=O)C3=C(O)CCCC3=O)c2=O)cc1 [I-78] | 5 (90% or more of herbicidal effect and crop phytotoxicity) | 5 (90% or more of herbicidal effect and crop phytotoxicity) | 5 (90% or more of herbicidal effect and crop phytotoxicity) |  |  |  |  | 5 (90% or more of herbicidal effect and crop phytotoxicity) | 5 (90% or more of herbicidal effect and crop phytotoxicity) | 5 (90% or more of herbicidal effect and crop phytotoxicity) | 5 (90% or more of herbicidal effect and crop phytotoxicity)
Cn1ncc(C(=O)c2ccc(C(F)(F)F)n(CCC[S+](C)[O-])c2=O)c1O (stereo not drawn) [IV-58] | 4 (70 to less than 90% of herbicidal effect and crop phytotoxicity) | 5 (90% or more of herbicidal effect and crop phytotoxicity) | 4 (70 to less than 90% of herbicidal effect and crop phytotoxicity) | 5 (90% or more of herbicidal effect and crop phytotoxicity) | 4 (70 to less than 90% of herbicidal effect and crop phytotoxicity) | 4 (70 to less than 90% of herbicidal effect and crop phytotoxicity) | 5 (90% or more of herbicidal effect and crop phytotoxicity) |  |  |  | 
Cc1ccc(C(=O)C2=C(O)CCCC2=O)c(=O)n1-c1ccccc1 [I-229] | 4 (70 to less than 90% of herbicidal effect and crop phytotoxicity) | 4 (70 to less than 90% of herbicidal effect and crop phytotoxicity) | 5 (90% or more of herbicidal effect and crop phytotoxicity) | 5 (90% or more of herbicidal effect and crop phytotoxicity) | 5 (90% or more of herbicidal effect and crop phytotoxicity) | 4 (70 to less than 90% of herbicidal effect and crop phytotoxicity) | 4 (70 to less than 90% of herbicidal effect and crop phytotoxicity) |  |  |  | 
CCn1ncc(C(=O)c2ccc(C(F)(F)F)n(C)c2=O)c1OC(C)=O [IV-208] | 5 (90% or more of herbicidal effect and crop phytotoxicity) | 5 (90% or more of herbicidal effect and crop phytotoxicity) | 5 (90% or more of herbicidal effect and crop phytotoxicity) | 5 (90% or more of herbicidal effect and crop phytotoxicity) | 5 (90% or more of herbicidal effect and crop phytotoxicity) | 4 (70 to less than 90% of herbicidal effect and crop phytotoxicity) | 5 (90% or more of herbicidal effect and crop phytotoxicity) |  |  |  | 
CCCN(CCC)n1c(C(F)(F)F)ccc(C(=O)C2=C(O)CCCC2=O)c1=O [I-173] | 5 (90% or more of herbicidal effect and crop phytotoxicity) | 5 (90% or more of herbicidal effect and crop phytotoxicity) | 5 (90% or more of herbicidal effect and crop phytotoxicity) | 4 (70 to less than 90% of herbicidal effect and crop phytotoxicity) | 5 (90% or more of herbicidal effect and crop phytotoxicity) | 5 (90% or more of herbicidal effect and crop phytotoxicity) | 4 (70 to less than 90% of herbicidal effect and crop phytotoxicity) |  |  |  | 
Cc1nn(C)c(O)c1C(=O)c1ccc(C(F)(F)F)n(C)c1=O [IV-231] | 5 (90% or more of herbicidal effect and crop phytotoxicity) | 5 (90% or more of herbicidal effect and crop phytotoxicity) | 5 (90% or more of herbicidal effect and crop phytotoxicity) | 5 (90% or more of herbicidal effect and crop phytotoxicity) | 5 (90% or more of herbicidal effect and crop phytotoxicity) | 5 (90% or more of herbicidal effect and crop phytotoxicity) | 3 (50 to less than 70% of herbicidal effect and crop phytotoxicity) |  |  |  | 
